Tests used:
iNOS = experiment: Western blot of iNOS in LPS-stimulated RAW264.7 cells; type: cell-based, mouse; conditions: 2.5, 5, 10 µM, 1 h, LPS 24 h
Experimental: (§1) RAW264.7 cells were seeded into 6-well plate with 2 × 10^6 cells per well and maintained about 24 h, and then pre-treated with compound B12 (2.5, 5, 10 µM) for 1 h, co-treated with LPS (0.5 µg/mL) for 0.5 h or 24 h. Western blotting assay was performed as the method described previously. Briefly, the cells were lysed in […] RIPA cell lysis buffer (Contains PMSF and phosphatase inhibitors, Beyotime China) and incubated on ice for 30 min. Collecting supernatant by centrifugation. The same amount of protein was separated by SDS-PAGE and transferred to PVDF membrane (GE Healthcare, Amersham, UK). The blotted membrane incubated with the primary antibodies and allowed to react for an additional 16 h at 4 °C. All antibodies obtain from Cell Signalling Technology, Boston, MA. The membranes incubated with a 1:5000 dilutions of HRP-conjugated secondary antibody (Beyotime Biotech, Nantong, China) for 1 h at room temperature. Signals were visualised using ECL system (Thermo Fisher Scientific, Waltham, MA).

[1] = Cell viability assay (MTT), LO2; type: cell-based; conditions: human, LO2 cells, read-out: Cytotoxicity IC50 with LO2
LPS-induced HaCaT cells = experiment: Hyperproliferation assay, LPS-stimulated HaCaT cells (MTT); type: cell-based, human; conditions: pre-treated 6 h, LPS 24 h
Experimental: HaCaT cells were seeded in 96-well plates and cultured at 37 °C in a humidified 5% CO2 atmosphere. When the cell confluency reached 60–70%, HaCaT cells were then starved in serum-free DMEM for 12 h before stimulated by 100 ng/mL LPS for 24 h to mimic hyperproliferative psoriatic keratinocytes. The cell viability was measured by MTT method. Results are expressed as the percentage survival of cells in the cell treated group and the untreated control group (without the tested compound and LPS).

JNK [2] = experiment: Western blot, LPS-induced JNK phosphorylation in RAW264.7; type: cell-based, mouse; conditions: LPS (0.5 μg/mL) 30 min
Experimental: as §1

COX-2 = experiment: Western blot of COX-2 in LPS-stimulated RAW264.7 cells; type: cell-based, mouse; conditions: 2.5, 5, 10 µM, 1 h, LPS 24 h
Experimental: as §1

NF-κB p65 = experiment: Western blot, LPS-induced NF-κB p65 translocation in RAW264.7; type: cell-based, mouse; conditions: LPS (0.5 μg/mL) 30 min
Experimental: as §1

[3] = system: LPS-induced nitric oxide production in RAW264.7 cells; experiment: LPS-induced NO production, Griess Reagent assay; type: cell-based, mouse; conditions: Mus musculus
Experimental: RAW264.7 cells (7 × 10^4 cells/well) were seeded into 48-well plate and used for experiments after 24 h. […] After 24 h collect cell supernatant, NO production was measured using Griess Reagent assay (Beyotime). Griess reagent were mixed at a ratio of 1:1, and reacted at room temperature for 15 min. Measurement of absorbance at […] with enzyme reader. At least three independent experiments were performed for the determination of IC50 values, which were shown as mean ± SD. All experimental data were analysed by using GraphPad Prism software, version 8.0 (GraphPad Inc.).

[4] = Cell viability assay (MTT), RAW264.7; type: cell-based, mouse; conditions: mouse, RAW264.7 cells, read-out: Cytotoxicity IC50 with RAW264.7
Experimental: (§2) RAW264.7 cells (1 × 10^4 cells/well) were seeded into 96-well plate and used for experiments after 24 h. Compounds (4 µM, 20 µM and 100 µM) treated cell for 24 h. Forty microliters of MTT solution (5 mg/mL, Sigma-Aldrich) was then added and incubated for an additional 4 h. After 4 h, cell culture supernatants were removed and DMSO (150 µL) was added into per well for dissolving the resulting crystals. Shaking about 1 0 ∼ 15 min and the absorbance at 492 nm was measured by a microplate reader (MQX200, Bio-Tek, Winooski, VT). At least three independent experiments were performed for the determination of IC50 values, which were shown as mean ± SD. All experimental data were analysed by using GraphPad Prism software, version 8.0 (GraphPad Inc.).

RAW264.7 cells = experiment: Cell viability assay (MTT), RAW264.7; type: cell-based, mouse; conditions: 24 h, read-out: Cytotoxicity IC50 with RAW264.7
Experimental: as §2

p38 [5] = experiment: Western blot, SUV-induced p38 phosphorylation in HaCaT cells; type: cell-based, human; conditions: SUV (40 kJ/m^2) 30 min
Experimental: (§3) HaCaT cells were seeded into 6-well plate with 2 × 10^6 cells per well. After 24 h culture and 12 h starvation, they were stimulated with SUV irradiation. The cells were irritated with 40 KJ/m^2 doses of SUV at 30 min. In order to study the effect of compound B12, the cells were starved in serum-free medium for 12 h, and then pre-treated with compound B12 (2.5, 5, 10 μM) for 6 h before SUV irradiation. Follow the same steps as above to transfer the electrophoretic band to PVDF membrane. All steps were performed in the same way as above except that the types of primary and secondary antibodies were different.

P38 [6] = experiment: Western blot, LPS-induced p38 phosphorylation in RAW264.7; type: cell-based, mouse; conditions: LPS (0.5 μg/mL) 30 min
Experimental: as §1

γ-H2AX = experiment: Western blot, SUV-induced γ-H2AX in HaCaT cells; type: cell-based, human; conditions: 2.5 μM to 10 μM, 6 h before 40 KJ/m^2 SUV
Experimental: as §3

[7] = Human liver microsomes stability assay in vitro; type: in vitro ADME
Experimental: The livers were homogenised initially in a Tris (0.1 M)/KCl (0.1 M)/EDTA (1 mM)/butylated sodium hydroxytoluene (BHT) (0.02 mM) buffer. Add 1.5 µL control/test compound B12 working solution to 238.5 µL liver microsome working solution, gently mix. Pre-incubate at 37 °C for 5 min. Start the reaction by adding 60 µL NADPH working solution. Mix by pipetting up and down. At each time point: 0, 5, 15, 30 and 60 min, remove 30 µL of reaction mixture to 300 µL of quenching solution. Vortex vigorously for ∼1 min and centrifuge at 4000 rpm at 4 °C for 15 min. Remove 100 µL of the supernatant and mixed with 100 µL distilled water for LC-MS/MS analysis.

JNK [8] = experiment: Western blot, SUV-induced JNK phosphorylation in HaCaT cells; type: cell-based, human; conditions: SUV (40 kJ/m^2) 30 min
Experimental: as §3

[9] = system: IMQ-induced psoriasis mouse model; experiment: IMQ-induced psoriasis-like skin inflammation mouse model; type: in vivo, BALB/c mice
Text: During treatment for 7 days, to score the severity of inflammation of mouse skin, an objective scoring system was developed based on the clinical psoriasis area and severity index. Erythema, scaling, and thickening were scored independently from 0 to 4 as follows: 0, none; 1, slight; 2, moderate; 3, marked; 4, very marked and weight loss. The cumulative score (erythema plus scaling plus thickening) served to indicate the severity of inflammation (scale 0 ∼ 12). On the 8th day, the mice were taken eyeball blood and back skin. One-half of the samples were immediately fixed in 4% paraformaldehyde and for haematoxylin and eosin (H&E) staining. The other samples were put in a −80 °C freezer. Before used, they were placed at room temperature for 30 min. After that, they were added 1 × PBS proportionally, homogenised and centrifuged. The supernatant was collected and used for ELISA assay and Western blot assay. […] The histological image was obtained using 3[sequence]’s Slide Converter (3[sequence], Hungary).

TOPK = biological target: T1, TOPK (Homo sapiens, UniProt Q96KB5); experiment: Cellular thermal shift assay (CETSA); type: binding; conditions: especially at 57 °C
T1 construct: endogenous in cells
T1 sequence (Q96KB5 1-322): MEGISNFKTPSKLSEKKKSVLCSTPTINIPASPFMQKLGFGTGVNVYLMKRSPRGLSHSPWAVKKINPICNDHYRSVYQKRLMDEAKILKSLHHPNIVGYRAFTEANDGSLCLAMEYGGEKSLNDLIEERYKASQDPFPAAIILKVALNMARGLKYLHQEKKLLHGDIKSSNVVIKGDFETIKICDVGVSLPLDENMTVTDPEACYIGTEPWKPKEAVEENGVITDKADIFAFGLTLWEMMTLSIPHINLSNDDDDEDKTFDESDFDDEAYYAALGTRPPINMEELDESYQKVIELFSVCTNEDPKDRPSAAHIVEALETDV
Text: Based on the ligand-induced thermal stabilisation of target proteins, the cellular thermal shift assay (CETSA) assay is likely to validate drug binding, off-target effects or drug resistance in cell lines. To further detect the direct binding of compound B12 with TOPK protein, CETSA was used in this study.

STAT3 = experiment: Western blot, SUV-induced STAT3 phosphorylation in HaCaT cells; type: cell-based, human; conditions: 2.5 μM to 10 μM, 6 h before 40 KJ/m^2 SUV
Experimental: as §3

- IC50 ([3]; LPS (0.5 μg/mL) 24 h): 2.14 µM
- CLhep ([7]; human): 0.51 L/h/kg
- half-life ([7]; human liver microsomes): 1.85 h
- microsomal CLint ([7]; human liver microsomes): 12.5 µL/min/mg
- Thermal stability of TOPK (CETSA) (TOPK): stabilised
Compound: COc1cc(O)c(C(C)=O)cc1NC(=O)Nc1cccc(C(F)(F)F)c1 [Compound B12, 1–(5-acetyl-4-hydroxy-2-methoxyphenyl)-3–(3-(trifluoromethyl)phenyl) urea]
- Expression of iNOS (iNOS): inhibited by compound B12 in a dose-dependent manner
- IC50 at 24 h [1]: > 100 µM
- Excessive proliferation of LPS-induced HaCaT cells (LPS-induced HaCaT cells): inhibited excessive proliferation of LPS-induced HaCaT cells in a dose dependent manner
- JNK protein phosphorylation (JNK [2]): inhibited
- Expression of COX-2 (COX-2): inhibited by compound B12 in a dose-dependent manner
- NF-κB p65 translocation into the nucleus (NF-κB p65): inhibited
- inhibition at 10 µM ([3]; compounds 10 μM, 1 h, then LPS (0.5 μg/mL) 24 h, read-out: Inhibition rate±SD (%) against NO production): 95.5 ± 3.26%
- IC50 at 24 h [4]: > 50 µM
- IC50 (RAW264.7 cells): > 100 µM
- Phosphorylation of p38, SUV-induced (p38 [5]): inhibited
- P38 protein phosphorylation (P38 [6]): inhibited
- Level of phosphorylated γ-H2AX (γ-H2AX): gradually decreased
- Phosphorylation of JNK, SUV-induced (JNK [8]): inhibited
- Pathological reduction, H&E of skin tissue ([9]; 20 mg/kg, intragastric once a day, 7 days): moderate pathological reduction
- Pathological reduction, H&E of skin tissue ([9]; 40 mg/kg, intragastric once a day, 7 days): high pathological reduction
- Expression of related proteins (p-STAT3, p-TOPK, TOPK, p-p38, p-JNKs, PCNA, p-H2AX) in mouse skin tissues ([9]; 20 and 40 mg/kg, Western blot): decreased significantly
- Experimental symptoms and PASI score ([9]; B12 20 and 40 mg/kg, Dex 20 mg/kg, intragastric once a day, 7 days): significantly attenuated experimental symptoms and PASI score in a dose-dependent manner
- Level of phosphorylated STAT3 (STAT3): gradually decreased

Source: article PMC8890542, “Discovery of novel paeonol-based derivatives against skin inflammation in vitro and in vivo” (Journal of Enzyme Inhibition and Medicinal Chemistry, 2022)
